These results are taken from PMC9346113, “Therapeutic impact of BET inhibitor BI 894999 treatment: backtranslation from the clinic” (British Journal of Cancer, 2022).

Where two headings read alike, the source gives them in different places.

The subject of one data set is 14169 BRD4-NUT. In words: Cell proliferation assay (Alamar readout), 14169. Type of data set: cell-based, human. Conditions: 96h, read-out: geomean GI50. As to the method: (§1) The NUT Carcinoma cell line Ty-82 was purchased from JCRB Japan No. 1330 and cultivated in RPMI 1640 supplemented with 10% fetal calf serum (FCS). The NC cell lines 10–15, 14169 and 10326 were in-licensed from Christopher French, Brigham & Womens Hospital, Boston, and were cultivated in DMEM supplemented with glutamax and 10% FCS.
(§2) Viability assays were performed on 96-well flat-bottom microtiter plates and incubated with Alamar Blue solution (Invitrogen, Carlsbad, US-CA). The effects of drug combinations were analysed using the Bliss Independence Model.
(§3) Dose response curves (96h cell proliferation assay - Alamar readout) on four NC cell lines with BET inhibitor BI 894999. Yellow bar: readout t zero (before adding of compound). Green bar: DMSO control (max proliferation).
(§4) Dose response curves (96h cell proliferation assay - Alamar readout) on four NC cell lines with multiple BET inhibitors.

In another data set the test system is 10–15 BRD4-NUT. In words: Cell proliferation assay (Alamar readout), 10–15. It counts as cell-based, human. The conditions noted are these: 96h, read-out: geomean GI50. As to the method: as §1, §2, §3, §4
A further data set deals with Ty-82 BRD4-NUT. Briefly: Cell proliferation assay (Alamar readout), Ty-82. Type of data set: cell-based, human. The conditions noted are these: read-out: geomean GI50. As to the method: as §1, §2, §3, §4
The test system of the next data set is 10326 BRD3-NUT. Briefly: Cell proliferation assay (Alamar readout), 10326. Type of data set: cell-based, human. Conditions: 96h, read-out: geomean GI50. The protocol: as §1, §2, §3, §4
For the next data set, the system named is T1, BRD3-NUT.
T1 construct: endogenous in cells; host or cells: 10326 NUT carcinoma cells, in culture (A11) and as subcutaneous xenograft tumours in NOG mice (A26)
In words: IHC of 10326 xenograft tumours, NUT protein. It counts as in vivo, mice. Conditions: day 21, CCS1477 at either dose (5 or 10 mg/kg). As to the method:
Immunohistochemistry was performed on formalin-fixed, paraffin-embedded tumour tissue using antibodies against human Ki67(Cell Signaling #9027, 1:400 dilution), anti-human mitochondria (Abcam ab92824, 1:1000 dilution) and against endogenous NUT protein (Cell Signaling #3625, 1:50 dilution) used to detect NUT fusion proteins. Digital images of whole tissue sections were acquired using a Leica SCN400 histology scanner (Leica Microsystems). Ki67-positive index was evaluated using Halo Software V. 3.2 (Indica lab). Regions of interest (ROIs) within the tissue sections were first identified using Halo Software via machine learning technology across pathological samples and tissue control, within these ROIs, nuclei were detected and classified as positive or negative based on IHC staining thresholds.
BRD3-NUT 10326 tumor sections after treatment with 2 mg/kg BI 894999, 5 mg/kg or 10 mg/kg CCS1477 and the combination of both. IHC staining for NUT protein.

The next data set relates to Ty-82. In words: Combination viability assay, Bliss analysis (CGI), Ty-82. It counts as cell-based, human. Conditions: partner in combination with BI 894999 (10–20 nM). As to the method: as §2
The subject of a further data set is T2, BRD4-NUT.
T2 construct: endogenous in cells; host or cells: Ty-82 NUT carcinoma cells
Briefly: Immunofluorescence staining of NUT megadomains, Ty-82. Type of data set: cell-based, human. Conditions: Ty-82; 30 min treatment. The protocol: Cells were seeded on four-well chamber slides (Merck Millipore, #PEZGS0416). After treatment, cells were fixed with 4% PFA (16% Solution, Thermo Fischer #28908 Paraformaldehyde, diluted 1:4 in PBS), permeabilised with 0,1% TX-100 (Sigma #93443, diluted in PBS). After blocking in blocking buffer (10% normal goat serum, Sigma #G9023–10ml, diluted in blocking solution: 2% BSA/PBS, Sigma #A7284–50ml, diluted 1:15 in PBS), the first antibody mAB rabbit anti-NUT 1:1000 (clone C52B1, Cell Signaling #3625) in blocking buffer was added, followed by incubation with the 2nd antibody goat anti-rabbit Alexa*488 1:1000 (Thermo Fisher, #A-11008) in blocking buffer in the dark. Cells were mounted with ProLong Gold Antifade Mountant with DAPI (Thermo Fisher, #P36931) and analysed using a Laser scanning microscope (LSM700). […]
Immunofluorescence staining of NUT megadomains on NC Ty-82 treated with BI with BI 894999 30nM for 1 h, then changed to 10 nM or 5 nM or 2.5 nM or control for 24 h.

The nature of data set [1]: PK analysis in mouse plasma. It counts as in vivo. Conditions: CIEA NOG (NOD.Cg-Prkdc^scid Il2rg^tm1Sug/JicTac), oral, mice, 5 mg/kg CCS1477, exposure defined as sufficient for a synergistic effect, read-out: plasma concentration at 6 h after compound application. An excerpt:
PK analysis in mouse plasma. Oral treatment at the indicated doses. Sampling at the indicated timepoints.

In data set [2] the test system is 10326 xenograft (BRD3-NUT). Briefly: 10326 NC xenograft model. Type of data set: in vivo. The text has this:
(§5) Mice were group-housed (8–10 mice per cage) under pathogen-free and controlled environmental conditions (21 ± 1.5 C temperature, 55 ± 10% humidity) in an AAALAC accredited facility and handled according to the institutional, governmental and European Union guidelines (Austrian Animal Protection Laws, GV-SOLAS and FELASA guidelines). Animal studies were approved by the internal ethics committee and the local government committee. Mice were 6- to 8-week-old female CIEA NOG purchased from Taconic, Denmark (NOD.Cg-Prkdc^scid Il2rg^tm1Sug/JicTac). 5 × 10^6 NC tumour cells were injected subcutaneously into the right flank of the mice (1 site per mouse). Mice were randomly distributed between the treatment and the vehicle control when tumours were well established and had reached volumes of 100–150 mm^3. Compounds were suspended in 0.5% Natrosol and administered once daily intra-gastral by gavage needle. Tumour diameters were measured three times a week with a calliper. […] Within each subtopic the p-values of the efficacy parameters were adjusted for multiple comparisons according to Bonferroni–Holm. The p-values of the tolerability parameter remained unadjusted in order not to overlook a possible adverse effect. The level of significance was fixed at α = 5%. An adjusted p-value of less than 0.05 was considered to show a statistically significant difference between the groups. The statistical evaluation was prepared using the software Graph Pad Prism.

The subject of data set [3] is Ty-82 xenograft (BRD4-NUT). In words: Ty-82 NC xenograft model. It counts as in vivo, mice.
Description: as §5

Data set [4] relates to 10–15 xenograft (BRD4-NUT). In words: 10–15 NC xenograft model. It counts as in vivo, mice.
Description: as §5

A further data set has as its system 10–15 xenografts. The arrangement: method as in PMID 32371576. The conditions noted are these: mice bearing 10–15 xenografts; tumour regression not described; cited from earlier work.
The conditions of data set [5]: mice; 1 mg/kg romidepsin; BI 894999 at clinically relevant doses; data not shown.

As for `CCNC(=O)C[C@@H]1N=C(c2ccc(Cl)cc2)c2cc(OC)ccc2-n2c(C)nnc21` [GSK525762], the GI50 with 14169 BRD4-NUT (Homo sapiens) was 55 nM; in the data set on 10–15 BRD4-NUT (Homo sapiens), 113 nM; in the data set on Ty-82 BRD4-NUT (Homo sapiens, TY82, 96h), 154 nM; in the data set with 10326 BRD3-NUT (Homo sapiens), 43.6 nM.
As to `Cc1sc2c(c1C)C(c1ccc(Cl)cc1)=N[C@@H](CC(=O)OC(C)(C)C)c1nnc(C)n1-2` [JQ1], the concentration for 50% growth inhibition (GI50) was determined as 49.2 nM in the data set on 14169 BRD4-NUT, 84.4 nM with 10–15 BRD4-NUT, 110 nM in the data set on Ty-82 BRD4-NUT (96h) and 43.2 nM in the data set with 10326 BRD3-NUT.
Consider `CO[C@H]1CC[C@H](n2c([C@@H]3CCCC(=O)N3c3ccc(F)c(F)c3)nc3cc(-c4c(C)noc4C)ccc32)CC1` [CCS1477], for which, in the data set on BRD3-NUT, the “loss of speckled megadomain localisation (NUT staining)” value is on record as “not seen”. Moreover, the GI50 in the data set on 14169 BRD4-NUT (Homo sapiens) came to 62.9 nM; in the data set on 10–15 BRD4-NUT (Homo sapiens), 32.9 nM; with Ty-82 BRD4-NUT (Homo sapiens, TY82, 96h), 38.5 nM; in the data set on 10326 BRD3-NUT (Homo sapiens), 22.7 nM. For the same compound, the “cell growth inhibition >100% reached at clinically achievable concentrations” value (“cell growth inhibition >100% reached” for short) with Ty-82 is on record as “accomplished”. In the data set on BRD4-NUT, the “concentration at which BRD4-NUT detaches from chromatin / is re-distributed” value is recorded as greater than 1000 nM. Also, the concentration at 6 h in data set [1] was 200 to 300 nM. In addition, the TGI was found to be 65% in data set [2] (5 mg/kg CCS1477), 88% in data set [2] (10 mg/kg CCS1477), 24% in data set [4] (5 mg/kg CCS1477) and 30% in data set [4] (10 mg/kg CCS1477). Moreover, the “TGI (tumour growth inhibition)” value in data set [3] (5 mg/kg CCS1477 p.o. daily) stood at 29%; in data set [3] (10 mg/kg CCS1477 p.o. daily), 11%.
On to `Cc1[nH]c2ccccc2c1CCNCc1ccc(/C=C/C(=O)NO)cc1` [Panobinostat], for which the “cell growth inhibition >100% reached” value in the data set on Ty-82 was “accomplished”.
For `CNC(=O)N1CCc2c(c(N3CCCc4cc(-c5cnn(C)c5)c(C(F)F)cc43)nn2C2CCOCC2)C1` [GNE-781], in the data set with Ty-82, the “cell growth inhibition >100% reached” value is listed as “accomplished”.
Still for that read-out and setting: for `CNC(=O)Nc1ccc2c(c1)CC[C@@]21OC(=O)N(CC(=O)N(Cc2ccc(F)cc2)[C@@H](C)C(F)(F)F)C1=O` [A485] the value was “not”.
In the case of `Cc1cc(-c2ccc3nc(C4CCOCC4)n(CCOC(F)(F)F)c3c2)cn(C)c1=O` [NEO2734], the “efficacy compared to BETi alone” value with 10–15 xenografts was “greater growth inhibition and significantly improved survival”. The GI50 with 14169 BRD4-NUT was determined as 20.4 nM; with 10–15 BRD4-NUT it was 22.6 nM; in the data set on Ty-82 BRD4-NUT (96h), 26.5 nM; with 10326 BRD3-NUT, 11.2 nM. The “concentration at which BRD4-NUT detaches from chromatin / is re-distributed” value in the data set with BRD4-NUT is recorded as greater than 100 nM.
On to `C/C=C1\NC(=O)[C@H]2CSSCC/C=C/[C@H](CC(=O)N[C@H](C(C)C)C(=O)N2)OC(=O)[C@H](C(C)C)NC1=O` [Romidepsin], for which the “cell growth inhibition >100% reached” value with Ty-82 is on record as “accomplished”. For the same compound, the “benefit when added to BI 894999” value in data set [5] is “did not show benefit”.
